Assay results: the NIST ThermoML archive (doi:10.1021/je5010214)

Details: Liquid, Vibrating tube method

CCCCO [butan-1-ol]
Details	mass density [kg/m3]
323.15 K, 34081 kPa	811.155
323.15 K, 35113 kPa	811.773
323.15 K, 37953 kPa	813.623
323.15 K, 42011 kPa	816.075
323.15 K, 48025 kPa	819.642
323.15 K, 49934 kPa	820.799
323.15 K, 52114 kPa	821.994
323.15 K, 54964 kPa	823.594
323.15 K, 58045 kPa	825.293
323.15 K, 60050 kPa	826.448
323.15 K, 62131 kPa	827.565
323.15 K, 64999 kPa	829.093
323.16 K, 920.7 kPa	786.888
323.16 K, 27958 kPa	807.28
323.16 K, 30055 kPa	808.674
323.16 K, 33067 kPa	810.61
323.16 K, 40047 kPa	814.861
323.16 K, 44937 kPa	817.856
323.16 K, 66131 kPa	829.687
328.15 K, 97.9 kPa	781.987
328.15 K, 289.9 kPa	782.179
328.15 K, 897.5 kPa	782.733
328.15 K, 994.1 kPa	782.825
328.15 K, 1988.8 kPa	783.741
328.15 K, 2996.7 kPa	784.66
328.15 K, 5013.4 kPa	786.446
328.15 K, 6974.9 kPa	788.15
328.15 K, 9017 kPa	789.881
328.15 K, 10040 kPa	790.727
328.15 K, 24924 kPa	802.164
328.15 K, 27979 kPa	804.324
328.15 K, 29958 kPa	805.68
328.15 K, 32060 kPa	807.104
328.15 K, 33066 kPa	807.772
328.15 K, 33107 kPa	807.703
328.15 K, 34013 kPa	808.285
328.15 K, 35030 kPa	808.989
328.15 K, 38010 kPa	810.915
328.15 K, 39969 kPa	812.181
328.15 K, 41959 kPa	813.311
328.15 K, 44953 kPa	815.144
328.15 K, 47978 kPa	816.959
328.15 K, 49927 kPa	818.128
328.15 K, 51997 kPa	819.32
328.15 K, 54947 kPa	821.045
328.15 K, 57939 kPa	822.658
328.15 K, 59991 kPa	823.77
328.15 K, 61982 kPa	824.89
328.15 K, 65032 kPa	826.439
328.15 K, 66046 kPa	826.965
328.16 K, 501 kPa	782.371
328.16 K, 12210 kPa	792.522
328.16 K, 15055 kPa	794.783
328.16 K, 18061 kPa	797.122
328.16 K, 20279 kPa	798.799
328.16 K, 22013 kPa	800.057
333.15 K, 532.6 kPa	779.903
333.15 K, 897.8 kPa	780.245
333.15 K, 1987.2 kPa	781.249
333.15 K, 3023.4 kPa	782.177
333.15 K, 4997.4 kPa	783.921
333.15 K, 7002.4 kPa	785.686
333.15 K, 9032 kPa	787.401
333.15 K, 10210 kPa	788.367
333.15 K, 15008 kPa	792.251
333.15 K, 22034 kPa	797.567
333.15 K, 28040 kPa	801.782
333.15 K, 30016 kPa	803.156
333.15 K, 32067 kPa	804.524
333.15 K, 34086 kPa	805.827
333.15 K, 35075 kPa	806.492
333.15 K, 37894 kPa	808.332
333.15 K, 40111 kPa	809.759
333.15 K, 41947 kPa	810.938
333.15 K, 44974 kPa	812.823
333.15 K, 45490 kPa	813.093
333.15 K, 47936 kPa	814.509
333.15 K, 49920 kPa	815.727
